Reference: PMC11240878, “Synthesis, enzyme inhibition assay, and molecular modeling study of novel pyrazolines linked to 4-methylsulfonylphenyl scaffold: antitumor activity and cell cycle analysis” (RSC Advances, 2024)

How the values were obtained:
[1] = test system: Bcl-2 in MDA-MB-231 cells; test: Apoptotic markers assay, Bcl-2; format: cell-based, human; details: at IC50 concentration, vs untreated control
Method: (§1) The levels of Bax (apoptosis promoter), Bcl-2 (apoptosis inhibitor), and apoptosis coordination enzymes (caspase-3 and caspase-9) were measured.[78–80]

[2] = test system: T-47D; test: NCI single-dose GI%, breast; format: cell-based, human; details: 10.0 μM in one dose
[3] = test system: EKVX; test: NCI single-dose GI%, NSC lung; format: cell-based, human; details: 10.0 μM in one dose
[4] = test system: UACC-257; test: NCI single-dose GI%, melanoma; format: cell-based, human; details: UACC-257, melanoma; 10.0 μM in one dose
[5] = test system: HOP-62; test: NCI single-dose GI%, NSC lung; format: cell-based, human; details: HOP-62, NSC lung; 10.0 μM in one dose
[6] = test system: caspase-3 in MDA-MB-231 cells; test: Apoptotic markers assay, caspase-3; format: cell-based, human; details: at IC50 concentration, vs untreated control
Method: as §1
(§2) Apoptotic markers experiment was performed according to reported procedure using MDA-MB-231 cancer cell line.[78–80]

[7] = molecular target: T1, COX-2 (Ovis aries, UniProt P79208); test: Colorimetric COX-2 inhibition assay
T1 sequence (P79208 17-603): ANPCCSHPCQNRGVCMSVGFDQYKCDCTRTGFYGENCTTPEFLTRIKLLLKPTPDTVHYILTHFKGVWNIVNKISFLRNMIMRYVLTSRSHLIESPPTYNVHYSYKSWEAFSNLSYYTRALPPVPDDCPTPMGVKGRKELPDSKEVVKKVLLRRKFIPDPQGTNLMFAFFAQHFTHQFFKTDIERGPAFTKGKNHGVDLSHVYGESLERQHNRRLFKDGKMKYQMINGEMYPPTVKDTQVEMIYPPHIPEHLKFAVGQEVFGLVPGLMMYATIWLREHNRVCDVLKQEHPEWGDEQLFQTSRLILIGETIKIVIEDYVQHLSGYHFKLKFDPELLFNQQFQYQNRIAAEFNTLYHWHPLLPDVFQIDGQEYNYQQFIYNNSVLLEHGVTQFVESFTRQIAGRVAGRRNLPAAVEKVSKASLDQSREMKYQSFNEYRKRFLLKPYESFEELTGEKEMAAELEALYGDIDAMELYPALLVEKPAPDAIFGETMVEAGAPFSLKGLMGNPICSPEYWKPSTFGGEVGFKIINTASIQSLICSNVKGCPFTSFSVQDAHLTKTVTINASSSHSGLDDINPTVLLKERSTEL

[8] = test system: A549/ATCC; test: NCI single-dose GI%, NSC lung; format: cell-based, human; details: 10.0 μM in one dose
[9] = test system: UO-31; test: NCI single-dose GI%, renal; format: cell-based, human; details: UO-31, renal; 10.0 μM in one dose
[10] = in vitro; details: human
Method: (§3) A normal fibroblast-like fetal lung cell line (WI-38) was used to further investigate the therapeutic safety of the newly synthesized hybrids and evaluate their selective cytotoxicity toward normal and tumor cells.[33,77]
(§4) The antitumor experiment was conducted on 59 human tumor cell lines derived from nine different human tissues, following the procedure of the Drug Evaluation Branch at the NCI, Bethesda, MD.[33]

[11] = test system: WI-38 normal fibroblast cells; test: in vitro; details: ratio of WI38 IC50 to cancer cell IC50 values
Method: as §3, §4

[12] = test system: CAKI-1; test: NCI single-dose GI%, renal; format: cell-based, human; details: CAKI-1, renal; 10.0 μM in one dose
[13] = test system: HL-60 cells; test: Cell cycle analysis by flow cytometry; format: cell-based, human; details: at IC50 concentration
Method: Flow cytometry measures cell growth in different cell cycle phases (G0–G1, S, G2/M and pre-G1).[33,77] This study aimed to find out how the target compounds affect the growth of cancer cells by examining at how they change the cell cycle and cause apoptosis in HL-60 cells.
The cell cycle analysis was conducted similarly to our prior study, using the leukemia HL-60 cell line. The cells were stained with the DNA fluorochrome PI and analyzed using a FACSCalibur flow cytometer.[33,77]

[14] = test system: 59 cancer cell lines; test: NCI 59 cancer cell line panel, single dose; format: cell-based, human; details: 10 μM single dose; for MG% (mean growth percent): 59 cell lines; for Mean GI% Breast cancer: breast cancer subpanel; for Mean GI% Leukemia: leukemia subpanel
[15] = molecular target: VEGFR2 (Homo sapiens, UniProt P35968); test: VEGFR2 tyrosine kinase inhibition assay
Sequence of VEGFR2 (P35968 20-1356): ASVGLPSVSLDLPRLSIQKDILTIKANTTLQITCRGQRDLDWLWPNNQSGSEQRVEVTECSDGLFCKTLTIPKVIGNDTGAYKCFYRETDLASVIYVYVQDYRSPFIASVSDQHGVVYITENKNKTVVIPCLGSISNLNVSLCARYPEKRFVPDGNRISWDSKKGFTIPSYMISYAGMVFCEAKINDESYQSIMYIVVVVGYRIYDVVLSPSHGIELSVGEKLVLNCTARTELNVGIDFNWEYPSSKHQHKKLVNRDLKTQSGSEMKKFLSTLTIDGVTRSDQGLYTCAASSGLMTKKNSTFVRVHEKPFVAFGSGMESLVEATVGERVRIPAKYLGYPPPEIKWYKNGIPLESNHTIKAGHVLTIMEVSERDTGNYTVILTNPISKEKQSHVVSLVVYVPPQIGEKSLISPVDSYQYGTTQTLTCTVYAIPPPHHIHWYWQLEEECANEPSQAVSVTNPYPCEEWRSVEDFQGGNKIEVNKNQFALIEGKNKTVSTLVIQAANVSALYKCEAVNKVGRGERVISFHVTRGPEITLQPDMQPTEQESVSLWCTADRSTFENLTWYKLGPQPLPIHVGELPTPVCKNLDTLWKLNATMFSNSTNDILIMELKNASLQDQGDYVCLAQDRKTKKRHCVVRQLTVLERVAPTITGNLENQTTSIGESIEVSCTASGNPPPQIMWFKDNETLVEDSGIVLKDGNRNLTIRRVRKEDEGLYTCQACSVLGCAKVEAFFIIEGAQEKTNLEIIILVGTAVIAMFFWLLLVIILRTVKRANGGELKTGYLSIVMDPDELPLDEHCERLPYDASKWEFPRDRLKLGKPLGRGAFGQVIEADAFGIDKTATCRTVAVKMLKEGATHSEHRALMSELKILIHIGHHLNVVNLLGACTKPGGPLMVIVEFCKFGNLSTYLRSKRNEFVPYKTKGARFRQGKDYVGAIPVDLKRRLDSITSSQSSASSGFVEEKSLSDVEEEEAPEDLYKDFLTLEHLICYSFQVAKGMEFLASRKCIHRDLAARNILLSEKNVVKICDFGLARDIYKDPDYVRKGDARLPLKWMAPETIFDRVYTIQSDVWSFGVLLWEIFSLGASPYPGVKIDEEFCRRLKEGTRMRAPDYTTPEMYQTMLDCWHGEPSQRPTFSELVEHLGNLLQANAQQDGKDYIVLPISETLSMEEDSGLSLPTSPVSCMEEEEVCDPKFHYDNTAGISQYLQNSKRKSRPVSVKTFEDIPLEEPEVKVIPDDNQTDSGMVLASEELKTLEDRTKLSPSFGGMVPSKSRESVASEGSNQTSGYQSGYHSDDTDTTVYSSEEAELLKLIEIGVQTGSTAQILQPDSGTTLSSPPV

[16] = test system: leukemia HL-60; test: cells; details: Homo sapiens, HL-60, 48 h, read-out: In vitro cytotoxicity IC50
Method: as §4

[17] = test system: MDA-MB-231; test: cells; details: Homo sapiens, MDA-MB-231, 48 h, read-out: In vitro cytotoxicity IC50
Method: as §4

[18] = test system: caspase-9 in MDA-MB-231 cells; test: Apoptotic markers assay, caspase-9; format: cell-based, human; details: at IC50 concentration, vs untreated control
Method: as §1, §2

[19] = test system: BT-549; test: NCI single-dose GI%, breast; format: cell-based, human; details: BT-549, breast; 10.0 μM in one dose
[20] = molecular target: EGFR (Homo sapiens, UniProt P00533); test: EGFR tyrosine kinase inhibition assay
Sequence of EGFR (P00533 25-1210): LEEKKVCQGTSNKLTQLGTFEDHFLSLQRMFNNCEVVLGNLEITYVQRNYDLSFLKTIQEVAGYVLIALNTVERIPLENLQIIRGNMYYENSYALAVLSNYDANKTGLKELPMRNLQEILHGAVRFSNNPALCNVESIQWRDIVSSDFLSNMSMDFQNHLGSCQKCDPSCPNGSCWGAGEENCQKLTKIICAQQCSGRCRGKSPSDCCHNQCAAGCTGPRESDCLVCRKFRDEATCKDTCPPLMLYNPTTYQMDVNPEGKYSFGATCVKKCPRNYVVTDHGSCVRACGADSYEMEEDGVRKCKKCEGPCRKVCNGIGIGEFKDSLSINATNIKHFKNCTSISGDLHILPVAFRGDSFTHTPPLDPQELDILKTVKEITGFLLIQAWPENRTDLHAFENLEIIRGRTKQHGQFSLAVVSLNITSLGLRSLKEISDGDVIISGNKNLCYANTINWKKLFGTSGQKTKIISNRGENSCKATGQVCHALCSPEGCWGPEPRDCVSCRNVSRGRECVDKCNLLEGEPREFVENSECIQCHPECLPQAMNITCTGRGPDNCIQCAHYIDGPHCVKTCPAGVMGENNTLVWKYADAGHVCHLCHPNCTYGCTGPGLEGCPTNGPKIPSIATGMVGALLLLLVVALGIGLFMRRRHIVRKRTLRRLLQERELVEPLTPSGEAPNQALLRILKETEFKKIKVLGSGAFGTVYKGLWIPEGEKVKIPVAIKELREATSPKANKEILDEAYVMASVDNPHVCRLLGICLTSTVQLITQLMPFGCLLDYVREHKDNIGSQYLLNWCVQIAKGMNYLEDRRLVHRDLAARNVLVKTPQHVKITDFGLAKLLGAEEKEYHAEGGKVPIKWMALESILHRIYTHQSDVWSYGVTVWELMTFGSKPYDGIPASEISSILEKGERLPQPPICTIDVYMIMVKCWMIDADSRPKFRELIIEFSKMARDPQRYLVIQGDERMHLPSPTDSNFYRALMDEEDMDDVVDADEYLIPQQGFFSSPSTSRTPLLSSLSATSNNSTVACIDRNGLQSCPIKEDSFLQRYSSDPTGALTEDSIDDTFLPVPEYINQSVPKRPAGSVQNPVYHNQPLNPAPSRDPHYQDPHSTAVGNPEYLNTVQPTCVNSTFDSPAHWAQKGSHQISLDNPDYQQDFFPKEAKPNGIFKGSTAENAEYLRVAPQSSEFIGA

[21] = test system: breast adenocarcinoma MCF-7; test: cells; details: Homo sapiens, MCF7, 48 h, read-out: In vitro cytotoxicity IC50, MCF-7; MTT, 48 h drug exposure; mean ± SD of three experiments
[22] = test system: SK-OV-3; test: NCI single-dose GI%, ovarian; format: cell-based, human; details: SK-OV-3, ovarian; 10.0 μM in one dose
[23] = test system: PC-3; test: NCI single-dose GI%, prostate; format: cell-based, human; details: PC-3, prostate; 10.0 μM in one dose
[24] = test system: HL-60 cells; test: Annexin V-FITC/PI apoptosis assay; format: cell-based, human; details: 24 h, at IC50 concentration
From the text: Most anticancer agents kill cancer cells via an apoptosis induction mechanism.[33,77]
As per our earlier study, we induced apoptosis using the leukemia HL-60 cell line and a widely recognized Annexin 5-FITC/PI detection kit. The cell line samples were examined utilizing a FACSCalibur flow cytometer.[33,77]

[25] = test system: K-562; test: NCI single-dose GI%, leukemia; format: cell-based, human; details: K-562, leukemia; 10.0 μM in one dose

For Cc1ccc(C2=NN(C(=O)c3ccc(S(C)(=O)=O)cc3)C(c3ccc(C)cc3)C2)cc1 (stereo not drawn) [Compound 18g, (3,5-Bis(4-tolyl)-4,5-dihydro-1H-pyrazol-1-yl)(4-(methylsulfonyl)phenyl)methanone], the “Bcl2 gene expression (fold change)” value [1] was 0.252 fold change, the GI% [2] was 32% and the GI% [3] was 25%. The GI% [4] was 40%, the GI% [5] was 26% and the “Casp3 gene expression (fold change)” value [6] was 3.945 fold change. For the same molecule, the IC50 [7] was 94 ± 4.41 µM, the GI% [8] was 43% and the GI% [9] was 26%. For the same molecule, the IC50 at 48 h [10] was 26.2 ± 1.16 µM, the “Mean tumor selectivity index (WI38/HL60, MCF7, and MDA-MB-231)” value (shortened to “Mean tumor selectivity index”) [11] was 3.73 and the GI% [12] was 43%. For the same molecule, the “% G0–G1” value [13] was 43.52%, the “% G2–M” value [13] was 29.09% and the “% Pre-G1” value [13] was 13.69%. For the same molecule, the “% S” value [13] was 27.39%, the “phase of cell cycle arrest” value [13] was “S/G2 phase” and the “PCE (positive cytotoxic effect: ratio of cell lines with growth inhibition >10% to total cell lines)” value [14] was 48/59. The “MG% (mean growth percent)” value [14] was 72.98%, the “Mean GI% Breast cancer” value [14] was 31% and the “Mean GI% Leukemia” value [14] was 63%. It also gave an IC50 [15] of 0.168 ± 0.003 µM, an IC50 [16] of 10.4 ± 0.68 µM and an IC50 [17] of 4.07 ± 0.18 µM. For the same molecule, the “Casp9 gene expression (fold change)” value [18] was 4.386 fold change, the GI% [19] was 27% and the IC50 [20] was 1.02 ± 0.034 µM. It also gave an IC50 [21] of 11.7 ± 0.96 µM, a GI% [22] of 26% and a GI% [23] of 33%. The “Apoptosis Early” value [24] was 4.47%, the “Apoptosis Late” value [24] was 7.84% and the “Apoptosis Total (percentage of annexin V-FITC positive cells)” value [24] was 13.69%. It also gave a Necrosis [24] of 1.38% and a GI% [25] of 80%.

With CS(=O)(=O)c1ccc(C(=O)N2N=C(c3ccccc3)CC2c2ccccc2O)cc1 (stereo not drawn) [Compound 18h, (5-(2-Hydroxyphenyl)-3-phenyl-4,5-dihydro-1H-pyrazol-1-yl)(4-(methylsulfonyl)phenyl)methanone] the “Bcl2 gene expression (fold change)” value [1] was 0.423 fold change, the GI% [2] was 30% and the GI% [3] was 41%. For the same molecule, the GI% [4] was 39%, the GI% [5] was 47% and the “Casp3 gene expression (fold change)” value [6] was 5.559 fold change. For the same molecule, the IC50 [7] was 19.3 ± 0.72 µM, the GI% [8] was 45% and the GI% [9] was 47%. For the same molecule, the IC50 at 48 h [10] was 40.9 ± 1.81 µM, the “Mean tumor selectivity index” value [11] was 4.51 and the GI% [12] was 33%. The “% G0–G1” value [13] was 53.27%, the “% G2–M” value [13] was 17.07% and the “% Pre-G1” value [13] was 10.77%. The “% S” value [13] was 29.66%, the “phase of cell cycle arrest” value [13] was “S/G2 phase” and the “PCE (positive cytotoxic effect: ratio of cell lines with growth inhibition >10% to total cell lines)” value [14] was 51/59. The “MG% (mean growth percent)” value [14] was 72.20%, the “Mean GI% Breast cancer” value [14] was 24% and the “Mean GI% Leukemia” value [14] was 46%. It also gave an IC50 [15] of 0.135 ± 0.009 µM, an IC50 [16] of 8.99 ± 0.4 µM and an IC50 [17] of 7.18 ± 0.32 µM. For the same molecule, the “Casp9 gene expression (fold change)” value [18] was 2.799 fold change, the GI% [19] was 19% and the IC50 [20] was 0.574 ± 0.019 µM. The IC50 [21] was 12.4 µM, the GI% [22] was 25% and the GI% [23] was 21%. The “Apoptosis Early” value [24] was 6.18%, the “Apoptosis Late” value [24] was 3.34% and the “Apoptosis Total (percentage of annexin V-FITC positive cells)” value [24] was 10.77%. The Necrosis [24] was 1.25% and the GI% [25] was 55%.

For CS(=O)(=O)c1ccc(C(=O)N2N=C(c3ccccc3)CC2c2ccc(F)cc2)cc1 (stereo not drawn) [Compound 18c, (5-(4-Fluorophenyl)-3-phenyl-4,5-dihydro-1H-pyrazol-1-yl)(4-(methylsulfonyl)phenyl)methanone], the “Bcl2 gene expression (fold change)” value [1] was 0.184 fold change, the GI% [2] was 24% and the GI% [3] was 15%. The GI% [4] was 32%, the GI% [5] was 26% and the “Casp3 gene expression (fold change)” value [6] was 7.453 fold change. The IC50 [7] was 127 ± 8.23 µM, the GI% [8] was 32% and the GI% [9] was 20%. For the same molecule, the IC50 at 48 h [10] was 34.8 ± 1.54 µM, the “Mean tumor selectivity index” value [11] was 3.02 and the GI% [12] was 22%. The “% G0–G1” value [13] was 51.19%, the “% G2–M” value [13] was 17.53% and the “% Pre-G1” value [13] was 8.07%. For the same molecule, the “% S” value [13] was 31.28%, the “phase of cell cycle arrest” value [13] was “S/G2 phase” and the “PCE (positive cytotoxic effect: ratio of cell lines with growth inhibition >10% to total cell lines)” value [14] was 21/59. The “MG% (mean growth percent)” value [14] was 90.58%, the “Mean GI% Breast cancer” value [14] was 16% and the “Mean GI% Leukemia” value [14] was 35%. For the same molecule, the IC50 [15] was 0.218 ± 0.005 µM, the IC50 [16] was 8.43 ± 1.7 µM and the IC50 [17] was 12.5 ± 0.56 µM. The “Casp9 gene expression (fold change)” value [18] was 5.158 fold change, the GI% [19] was 14% and the IC50 [20] was 1.12 ± 0.037 µM. The IC50 [21] was 16.2 ± 0.72 µM, the GI% [22] was 14% and the GI% [23] was 17%. For the same molecule, the “Apoptosis Early” value [24] was 2.91%, the “Apoptosis Late” value [24] was 4.4% and the “Apoptosis Total (percentage of annexin V-FITC positive cells)” value [24] was 8.06%. The Necrosis [24] was 0.76% and the GI% [25] was 33%.
